From PubChem BioAssay AID1963864 (Molecular Pharmacology Branch, DTP, NCI, 2024) come the findings set out here.

By viability, T/C is commonly meant the result in the treated group divided by that in the control group, in per cent. By IC50 is commonly meant the point on the concentration scale where inhibition reaches its midpoint.

The subject of this test is KRAS PDC multicell spheroid viability. In words: Anticancer human tumor 521955-158-R6-J3-PDC patient-derived pancreatic carcinoma cell line growth inhibition [KRAS2]. The conditions noted are these: for viability, T/C: stronger effect = lower value. The source says: Multicellular complex tumor spheroid response to RAS pathway inhibitors in combination with a targeted agents in patient-derived cell lines with oncogenic KRAS variants from multiple cancer types
A high-throughput screen of multi-cell type tumor spheroids was designed to identify active combinations of targeted small molecules and KRAS pathway inhibitors. Complex spheroids include a stromal component modeled by human endothelial cells (HUVEC) and fibroblasts modeled by human mesenchymal stem cells (MSCs). The concentration ranges selected for each drug and investigational agent were based upon clinically achievable concentrations if the clinical Cmax of the agent was known.
Compounds. The drugs and investigational agents: BI-3406 (NSC825286), BAY-293 (NSC824723), batoprotafib (TNO155; NSC825523), sotorasib (AMG 510; NSC818433), MRTX1257 (NSC819558), elimusertib (BAY 1895344; NSC800525), molibresib (GSK525762; NSC774829), temuterkib (LY3214996; NSC803410), venetoclax (NSC766270), alisertib (NSC759677), olaparib (NSC753686), talazoparib (NSC767125), erdafitinib (NSC781556), ipatasertib (NSC767898), cabozantinib (NSC761068), nintedanib (NSC756659), abemaciclib (NSC768073), docetaxel (NSC628503), trametinib (NSC758246), and sapanisertib (NSC764658) were obtained from the National Cancer Institute (NCI) Developmental Therapeutics Program Chemical Repository. The FDA-approved anticancer drug set is available from the Developmental Therapeutics Program. […] The stock solutions were prepared in dimethyl sulfoxide (DMSO, Sigma-Aldrich, St. Louis, MO, cat. D2650) at 800-fold the tested concentration and stored at -70 degrees C prior to their use. All drugs and investigational agents were tested over a range starting from a high concentration at or near the clinical Cmax and decreasing in half-log increments. If the clinical Cmax for an agent had not been determined, the highest concentration tested was 10 microM.
Cell Culture. All cells were maintained in an incubator at 37 degrees C and 5% CO2 with 95% humidity. The PDC lines were cultured according to standard operating procedures established by the NCI PDMR (https://pdmr.cancer.gov/sops/default.htm). Briefly, all PDCs were thawed and cultured in Matrigel-coated flasks prepared with a working solution of 1X Ham's F-12 nutrient mix, without supplementation (Invitrogen, Waltham, MA, cat. 11765054), 100 U/mL penicillin-streptomycin (Invitrogen, cat. 15140122), and 2.5% Matrigel (Corning Inc., Corning, NY, cat. 354248) for the first three passages. All PDCs were cultured in complete DMEM/F-12 media containing advanced DMEM/F-12 (Invitrogen, cat. 12634028), 4.9% defined fetal bovine serum, heat inactivated (HyClone Laboratories Inc., Logan, UT, cat. SH30070.03HI), 389 ng/mL hydrocortisone (Sigma-Aldrich, cat. H4001), 9.7 ng/mL human EGF recombinant protein (Invitrogen, cat. PHG0313), 23.4 microg/mL adenine (Sigma-Aldrich, cat. A2786), 97.3 U/mL penicillin-streptomycin (Invitrogen, cat. 15140122), 1.9 mM L-glutamine (Invitrogen, cat. 25030081), and 9.7 microM Y-27632 dihydrochloride (Tocris Bioscience, Bristol, United Kingdom, cat. 1254). The PDCs were cultured in complete DMEM/F12 media without 9.7 microM Y-27632 dihydrochloride for at least two passages prior to the screen. The established cell line HOP-62 was cultured in RPMI 1640 medium, HEPES (Invitrogen, cat. 22400105) with 10% defined fetal bovine serum (HyClone Laboratories Inc., cat. SH30070.03) and 2 mM L-glutamine (Invitrogen, cat. 25030081). The pooled donor HUVEC were cultured in endothelial cell growth medium 2 (PromoCell, Heidelberg, Germany, cat. C-22011) and the hMSC were cultured in mesenchymal stem cell growth medium 2 (PromoCell, cat. C-28009). For all experiments, HUVEC and hMSC were used at passages </=5, while the malignant cell lines were used at passages </=15. […]

Where [1] appears, read: compound alone, run of 09/02/2021.

“And” between values parts separate entries of the source, which are not always exact repeats. Equal values may be shown once.
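Further: drug exposure lasted seven days.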
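Wherever viability, T/C is given: 100% = DMSO vehicle wells and lower means fewer viable cells.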

Take `C=CC(=O)N1CCN(c2nc(OCC3CCCN3C)nc3c2CCN(c2cccc4cccc(C)c24)C3)CC1CC#N` (centres undefined): the viability, T/C by setting is: (compound 0.0316 µM) 91.1% [middle of 16 runs]; (compound 0.1 µM) 94.9% [middle of 16 runs]. For the same compound, the IC50 under setting [1] is 2.01 µM [middle of 5 runs].
`CC(=O)Nc1cccc(-n2c(=O)n(C3CC3)c(=O)c3c(Nc4ccc(I)cc4F)n(C)c(=O)c(C)c32)c1`: the viability, T/C was 95.7% [middle of 5 runs] (compound 0.0001 µM); 99.3% [middle of 5 runs] (compound 0.000316 µM); 85.6% [middle of 5 runs] (compound 0.00316 µM); 72.2% [middle of 5 runs] (compound 0.01 µM); 44% [middle of 5 runs] (compound 0.0316 µM).
Take `CC(=O)OC12COC1CC(O)C1(C)C(=O)C(O)C3=C(C)C(OC(=O)C(O)C(NC(=O)OC(C)(C)C)c4ccccc4)CC(O)(C(OC(=O)c4ccccc4)C21)C3(C)C` (centres undefined): the viability, T/C was 87.1% [middle of 5 runs] (compound 0.01 µM); 77.4% [middle of 5 runs] (compound 0.0316 µM); 73.6% [middle of 5 runs] (compound 0.1 µM); 86.8% [middle of 5 runs] (compound 0.316 µM); 101% [middle of 5 runs] (compound 1 µM); 119% [middle of 5 runs] (compound 3.16 µM). Besides, the IC50 (curve of compound) was above 3.16 µM.
For the compound `CC(C)NCC(C(=O)N1CCN(c2ncnc3c2C(C)CC3O)CC1)c1ccc(Cl)cc1` (centres undefined), the viability, T/C is 94.6% [middle of 5 runs] (compound 0.0316 µM); 85.2% [middle of 5 runs] (compound 0.1 µM); 83.1% [middle of 5 runs] (compound 0.316 µM); 77% [middle of 5 runs] (compound 1 µM); 76.1% [middle of 5 runs] (compound 3.16 µM); 70.1% [middle of 5 runs] (compound 10 µM). The IC50 (curve of compound) was above 10 µM.
In the case of `CC(C)n1nc(-c2ccc3oc(N)nc3c2)c2c(N)ncnc21`, the viability, T/C (compound 0.000316 µM) was 91.3% [middle of 5 runs]; the viability, T/C (compound 0.001 µM) was 91.3% [middle of 5 runs]; the viability, T/C (compound 0.00316 µM) is 82.9% [middle of 5 runs]; the viability, T/C (compound 0.01 µM) is 74.3% [middle of 5 runs]; the viability, T/C (compound 0.0316 µM) is 67.2% [middle of 5 runs]; the viability, T/C (compound 0.1 µM) was 50.7% [middle of 5 runs]. The IC50 (curve of compound) is > 0.1 µM and 0.0957 µM.
Turning to `CC1(C)CCC(CN2CCN(c3ccc(C(=O)NS(=O)(=O)c4ccc(NCC5CCOCC5)c([N+](=O)[O-])c4)c(Oc4cnc5[nH]ccc5c4)c3)CC2)=C(c2ccc(Cl)cc2)C1`, the viability, T/C is, setting by setting: (compound 0.0316 µM) 96.5% [middle of 5 runs]; (compound 0.1 µM) 96.3% [middle of 5 runs]; (compound 0.316 µM) 90.6% [middle of 5 runs]; (compound 1 µM) 97.9% [middle of 5 runs].
Consider `CC1COCCN1c1cc(-c2ccnn2C)c2ccnc(-c3ccn[nH]3)c2n1` (centres undefined), for which the viability, T/C is, setting by setting: (compound 0.01 µM) 99.8% [middle of 5 runs]; (compound 0.0316 µM) 90.3% [middle of 5 runs]; (compound 0.1 µM) 83.4% [middle of 5 runs]; (compound 0.316 µM) 78.2% [middle of 5 runs]; (compound 1 µM) 84.7% [middle of 5 runs]; (compound 3.16 µM) 86.6% [middle of 5 runs]. Also, the IC50 (curve of compound) was above 3.16 µM.
As to `CC1OCC2(CCN(c3cnc(Sc4ccnc(N)c4Cl)c(N)n3)CC2)C1N` (centres undefined), the viability, T/C is, setting by setting: (compound 0.0316 µM) 97.6% [middle of 4 runs]; (compound 0.316 µM) 86.6% [middle of 19 runs]. Besides, the IC50 (compound alone, run of 08/19/2021) was above 10 µM; the IC50 (compound alone, run of 08/26/2021) was above 10 µM; the 50% inhibitory concentration (IC50) under setting [1] was above 10 µM; the IC50 (curve of compound) is above 10 µM.
Regarding `CCN1CCN(Cc2ccc(Nc3ncc(F)c(-c4cc(F)c5nc(C)n(C(C)C)c5c4)n3)nc2)CC1`, the viability, T/C runs as follows: (compound 0.00316 µM) 101% [middle of 5 runs]; (compound 0.01 µM) 86.9% [middle of 5 runs]; (compound 0.0316 µM) 85.5% [middle of 5 runs]; (compound 0.1 µM) 81.5% [middle of 5 runs]; (compound 0.316 µM) 88.2% [middle of 5 runs]; (compound 1 µM) 95.5% [middle of 5 runs]. Besides, where the note is “curve of compound”, the IC50 is above 1 µM.
Regarding `CCNC(=O)CC1N=C(c2ccc(Cl)cc2)c2cc(OC)ccc2-n2c(C)nnc21` (centres undefined), the viability, T/C is 96.8% [middle of 5 runs] (compound 0.0316 µM); 90.3% [middle of 5 runs] (compound 0.1 µM); 84.9% [middle of 5 runs] (compound 0.316 µM); 79.8% [middle of 5 runs] (compound 3.16 µM); 79.4% [middle of 5 runs] (compound 10 µM). Moreover, under “curve of compound”, the IC50 was above 10 µM.
As to `CN(C)C/C=C/C(=O)Nc1cc2c(Nc3ccc(F)c(Cl)c3)ncnc2cc1O[C@H]1CCOC1`, the viability, T/C is 93.6% [middle of 5 runs] (compound 0.000316 µM); 82.4% [middle of 5 runs] (compound 0.001 µM); 81.6% [middle of 5 runs] (compound 0.00316 µM); 68.3% [middle of 5 runs] (compound 0.01 µM); 62.6% [middle of 5 runs] (compound 0.0316 µM); 63.5% [middle of 5 runs] (compound 0.1 µM). Also, the half-maximal inhibitory concentration (IC50) (curve of compound) is above 0.1 µM.
For `COc1cc(Nc2ncc3c(n2)-c2ccc(Cl)cc2C(c2c(F)cccc2OC)=NC3)ccc1C(=O)O`, the viability, T/C reads like this: (compound 0.0316 µM) 93.8% [middle of 5 runs]; (compound 0.1 µM) 90.8% [middle of 5 runs]; (compound 0.316 µM) 96.9% [middle of 5 runs]; (compound 1 µM) 90.7% [middle of 5 runs]. Besides, the IC50 (curve of compound) was above 10 µM.
In the case of `COc1cc(OC)cc(N(CCNC(C)C)c2ccc3ncc(-c4cnn(C)c4)nc3c2)c1`, the viability, T/C was 96% [middle of 4 runs] (compound 0.0316 µM); 96.3% [middle of 4 runs] (compound 0.1 µM); 96.1% [middle of 4 runs] (compound 0.316 µM); 94% [middle of 4 runs] (compound 1 µM); 110% [middle of 4 runs] (compound 3.16 µM); 7.96% [middle of 4 runs] (compound 10 µM). The IC50 (curve of compound) is 5.96 µM [middle of 4 runs].
As to `Cn1nccc1Nc1nccc(-c2cc3c(s2)C(C)(C)N(CCN2CCOCC2)C3=O)n1`, the viability, T/C runs as follows: (compound 0.0316 µM) 109% and 83.6%; (compound 0.1 µM) 112% and 98.5%; (compound 0.316 µM) 123% and 98.7%; (compound 1 µM) 105% and 91.8%; (compound 3.16 µM) 85.4% and 76%; (compound 10 µM) 73.7% and 66.2%. The IC50 (curve of compound) was above 10 µM.
Consider `Cn1ncnc1[C@H]1c2n[nH]c(=O)c3cc(F)cc(c23)N[C@@H]1c1ccc(F)cc1`, for which the viability, T/C (compound 0.000316 µM) is 91.8% [middle of 5 runs]; the viability, T/C (compound 0.001 µM) was 95.2% [middle of 5 runs]; the viability, T/C (compound 0.01 µM) is 104% [middle of 5 runs]; the viability, T/C (compound 0.1 µM) is 89.8% [middle of 5 runs]. Further, the IC50 (curve of compound) is above 0.1 µM.
For `O=C(c1cc(Cc2n[nH]c(=O)c3ccccc23)ccc1F)N1CCN(C(=O)C2CC2)CC1`, the viability, T/C is, setting by setting: (compound 0.0316 µM) 89.9% [middle of 5 runs]; (compound 0.316 µM) 86.2% [middle of 5 runs]; (compound 3.16 µM) 78.3% [middle of 5 runs]. For the same compound, the IC50 (curve of compound) was above 10 µM.
